Assay results as given in the NIST ThermoML archive (doi:10.1021/je800783a).

Test: xn = mol fraction of the nth substance listed
Conditions: 101 kPa, Liquid, Vibrating tube method

CCCn1cc[n+](C)c1.N[C@@H](CCC(=O)O)C(=O)[O-] + O
mass density [kg/m3]
Conditions	283.15 K	288.15 K	293.15 K	298.15 K	303.15 K	308.15 K
x1 = 0.039	1090.4	1088.42	1086.11	1083.72	1081.22	1078.64
x1 = 0.0455	1100.76	1098.39	1095.92	1093.38	1090.77	1088.06
x1 = 0.0497	1106.9	1104.45	1101.92	1099.3	1096.64	1093.89
x1 = 0.0683	1129.12	1126.36	1123.56	1120.71	1117.81	1114.86
x1 = 0.0783	1139.04	1136.21	1133.31	1130.35	1127.36	1124.33
x1 = 0.0894	1147.7	1144.79	1141.8	1138.78	1135.72	1132.63
x1 = 0.0975	1153.37	1150.37	1147.34	1144.3	1141.18	1138.07
x1 = 0.1235	1169.78	1166.6	1163.35	1160.15	1156.96	1153.81
x1 = 0.1451	1178.22	1175.07	1172.01	1168.85	1165.64	1162.49
x1 = 0.1925	1191.85	1188.67	1185.47	1182.21	1178.9	1175.73
x1 = 0.239	1201.76	1198.15	1194.83	1191.61	1188.36	1185.05
x1 = 0.2888	1208.1	1204.86	1201.46	1197.83	1194.59	1191.36
x1 = 0.3294	1211.85	1208.49	1205.08	1201.85	1198.55	1195.3
x1 = 0.3767	1215	1211.68	1208.49	1205.25	1201.91	1198.71
x1 = 0.4265	1218.6	1214.72	1211.93	1209.67	1206.45	1203.15
x1 = 0.4713	1220.69	1217.33	1213.9	1210.64	1207.32	1203.95
x1 = 0.5112	1221.72	1218.47	1215.18	1211.78	1208.42	1205.15
x1 = 0.5427	1223.07	1220.26	1216.93	1213.92	1210.64	1207.34
